The source of these data is article PMC8479016, “High-throughput screening and evaluation of repurposed drugs targeting the SARS-CoV-2 main protease” (Signal Transduction and Targeted Therapy, 2021).

“And” between values parts separate entries of the source, which are not always exact repeats. Equal entries are not always repeated. “Also recorded” adds a separate entry of the source. Where two headings read alike, the source gives them in different places.

The target in experiment [1] is T1, SARS-CoV-2 M^pro (Severe acute respiratory syndrome coronavirus 2, UniProt P0DTD1). Briefly: biochemical. Format: binding.
Experiment [2] addresses T1, SARS-CoV-2 M^pro. Nature of the experiment: biochemical. Format: biochemical. The conditions noted are these: for inhibitory efficacy on the enzymatic activity of M^pro (inhibition rate): 20 μM drug, 1.5 µM M^pro, 10 μM substrate, 3~6 h.
For experiment [3], the system named is SARS-CoV-2. Nature of the experiment: Antiviral activity assay in infected Vero E6 cells, viral RNA copies by qRT-PCR. Particulars: Vero E6, MOI 0.01, 48 h after infection. In kind it is cell-based.
The test system of experiment [4] is SARS-CoV-2. The arrangement: method as in earlier work. Particulars: cellular experiment; cited from earlier work.
[5] abbreviates: SPR, steady-state affinity model, 25℃, read-out: KD (equilibrium dissociation constant).

For the compound `CN1CCN(c2ccc(C(=O)Nc3n[nH]c4ccc(Cc5cc(F)cc(F)c5)cc34)c(NC3CCOCC3)c2)CC1` [Entrectinib], the Kd on SARS-CoV-2 M^pro [1] (setting [5]) is ≤ 55 µM and 0.68 µM. Moreover, the IC50 at SARS-CoV-2 M^pro [2] (200 nM M^pro, 5-fold gradient 0.032-20 µM, 3 h, read-out: IC50) worked out at 10.6 µM. Also, on SARS-CoV-2 M^pro [2], the “inhibitory efficacy on the enzymatic activity of M^pro (inhibition rate)” value (shortened to “inhibitory efficacy”) is “outstanding inhibitory efficacy”. Also, the concentration giving a half-maximal response (EC50) with SARS-CoV-2 [3] (Severe acute respiratory syndrome coronavirus 2, Vero C1008) was found to be 0.198 µM.

As for `CC(C)CN(C[C@@H](O)[C@H](Cc1ccccc1)NC(=O)O[C@H]1CO[C@H]2OCC[C@H]21)S(=O)(=O)c1ccc(N)cc1` [darunavir], the “inhibitory efficacy” value against SARS-CoV-2 M^pro [2] is “either no or only weak inhibitory effects”.

Turning to `Cc1cccc(C)c1OCC(=O)N[C@@H](Cc1ccccc1)[C@@H](O)C[C@H](Cc1ccccc1)NC(=O)[C@H](C(C)C)N1CCCNC1=O` [lopinavir], at SARS-CoV-2 M^pro [2], the “inhibitory efficacy” value is recorded as “either no or only weak inhibitory effects”.

Take `CC(C)(C)NC(=O)[C@@H]1C[C@@H]2CCCC[C@@H]2CN1C[C@@H](O)[C@H](Cc1ccccc1)NC(=O)[C@H](CC(N)=O)NC(=O)c1ccc2ccccc2n1` [Saquinavir]: the results for the equilibrium dissociation constant (Kd) on SARS-CoV-2 M^pro [1] and at SARS-CoV-2 M^pro [1] (read-out: KD (equilibrium dissociation constant)) were 2.96 ± 2 µM and not above 55 µM, respectively.

Consider `Cc1c(O)cccc1C(=O)N[C@@H](CSc1ccccc1)[C@H](O)CN1C[C@H]2CCCC[C@H]2C[C@H]1C(=O)NC(C)(C)C` [nelfinavir], for which the dissociation constant Kd on SARS-CoV-2 M^pro [1] turned out to be 2.36 µM. On SARS-CoV-2 M^pro [2], the IC50 amounted to 41.5 µM and the “inhibitory efficacy” value is “either no or only weak inhibitory effects; also recorded: failed to block the enzymatic activity”. Further, the EC50 in the experiment on SARS-CoV-2 [4] was 1.13 µM.

For the compound `Cc1onc(-c2ccccc2Cl)c1C(=O)N[C@@H]1C(=O)N2[C@@H]1SC(C)(C)[C@@H]2C(=O)O` [Cloxacillin], the equilibrium dissociation constant (Kd) on SARS-CoV-2 M^pro [1] (setting [5]) was ≤ 55 µM and 54.6 µM. For the same compound, on SARS-CoV-2 M^pro [2], the “inhibitory efficacy” value is reported as “moderate inhibition”.

Consider `C[C@@H]1CCO[C@H]2Cn3cc(C(=O)NCc4ccc(F)cc4F)c(=O)c(O)c3C(=O)N12` [Dolutegravir], for which the Kd at SARS-CoV-2 M^pro [1] (setting [5]) is ≤ 55 µM and 18.1 µM. Besides, on SARS-CoV-2 M^pro [2], the “inhibitory efficacy” value is listed as “moderate inhibition”.

On to `CC(C)(O)CNc1nc(Nc2ccnc(C(F)(F)F)c2)nc(-c2cccc(C(F)(F)F)n2)n1` [Enasidenib], for which the dissociation constant (Kd) on SARS-CoV-2 M^pro [1] (setting [5]) is ≤ 55 µM and 9.31 µM.

In the experiment on SARS-CoV-2 [3], `CC(C)C[C@H](NC(=O)OCc1ccccc1)C(=O)N[C@@H](CC1CCNC1=O)C(O)S(=O)(=O)O` (stereo partly drawn) [GC376] displayed an EC50 of 0.074 µM.
